The results in this text go back to patent US6630496B1, “Inhibitors of phospholipase enzymes” (Genetics Institute LLC, priority 1996, dated 2003).

Bounds are passed on as bounds.

The target of assay [1] is T1, cPLA2 (Homo sapiens, UniProt P47712).
T1 sequence (P47712 1-749): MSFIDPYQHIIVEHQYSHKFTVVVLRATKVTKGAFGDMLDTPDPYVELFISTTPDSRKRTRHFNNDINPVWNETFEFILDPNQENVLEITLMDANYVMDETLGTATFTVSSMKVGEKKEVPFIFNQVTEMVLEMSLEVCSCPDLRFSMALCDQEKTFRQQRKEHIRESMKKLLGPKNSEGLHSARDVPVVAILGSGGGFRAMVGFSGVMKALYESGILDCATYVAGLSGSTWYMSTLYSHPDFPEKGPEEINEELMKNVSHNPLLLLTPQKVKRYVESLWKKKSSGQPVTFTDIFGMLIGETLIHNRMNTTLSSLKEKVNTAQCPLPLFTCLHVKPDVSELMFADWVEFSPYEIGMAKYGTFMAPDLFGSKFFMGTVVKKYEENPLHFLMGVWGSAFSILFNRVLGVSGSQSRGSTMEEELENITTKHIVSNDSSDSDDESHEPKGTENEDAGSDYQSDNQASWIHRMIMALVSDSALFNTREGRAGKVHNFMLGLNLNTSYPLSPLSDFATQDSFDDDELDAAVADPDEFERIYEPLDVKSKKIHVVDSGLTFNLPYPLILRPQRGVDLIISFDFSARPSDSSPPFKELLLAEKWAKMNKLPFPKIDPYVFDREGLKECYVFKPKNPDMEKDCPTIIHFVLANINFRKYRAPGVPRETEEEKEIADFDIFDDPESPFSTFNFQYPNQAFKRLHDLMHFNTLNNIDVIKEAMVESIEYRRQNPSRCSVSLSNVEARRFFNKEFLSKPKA
Kind of assay: Soluble substrate assay (LysoPC). It is filed as biochemical. As for the experimental part: (b) Soluble Substrate Assay (LysoPC)
The lipid was resuspended by vortexing 80 mM Hepes pH 7.5, 1 mM EDTA (1.2×final concentration). A typical assay consisted of lipid suspension (85 μl) to which was added consecutively the inhibitor (5 μl in DMSO) and cPLA2, 200 ng in 80 mM Hepes pH 7.5, 2 mM DTT and […]. This assay was conducted by either the manual assay or automated assay protocol described below.

Assay [2] deals with T1, cPLA2. Put plainly: Coumarine assay (7-hydroxycoumarinyl 6-heptenoate hydrolysis). In kind it is biochemical. Here is the method:
7-hydroxycoumarinyl 6-heptenoate was used as a monomeric substrate for cPLA2 as reported previously (Huang, Z. et al., 1994, Analytical Biochemistry 222, 110-115). Inhibitors were mixed with 200 μL assay buffer (80 mM Hepes, pH 7.5, 1 mM EDTA) containing 60 μM 7-hydroxycoumarinyl 6-heptenoate. The reaction was initiated by adding 4 μg cPLA2 in 50 μL assay buffer. Hydrolysis of the 7-hydroxycoumarinyl 6-heptenoate ester was monitored in a fluorometer by exciting at 360 nm and monitoring emission at 460 nm. Enzyme activity is proportional to the increasein emission at 460 nm per minute. In the presence of a cPLA2 inhibitor, the rate of increase is less.

Where [3] appears, read: NA = inhibitory activity not detected, read-out: IC50 (μM) Lyso PC.
Setting [4] is: 60 μM 7-hydroxycoumarinyl 6-heptenoate, read-out: IC50 (μM) Coumarine.

For `CN(C)C(=O)c1cc(NC(=O)CSCC2Cc3cc(OCc4ccccc4)ccc3N2C(=O)COc2cc(C(F)(F)F)cc(C(F)(F)F)c2)cc(C(=O)O)c1` (stereo not drawn) [Example 39], the IC50 (usually the midpoint of a concentration-inhibition curve) was 4.3 µM on cPLA2 [1] (setting [3]) and 18 µM on cPLA2 [2] (setting [4]). For `COc1ccc(COc2ccc3c(c2)CC(CNC(=O)Nc2cc(C(=O)O)cc(C(=O)O)c2)N3Cc2ccc(C(F)(F)F)cc2C(F)(F)F)cc1` (stereo not drawn) [Example 86], the IC50 on cPLA2 [2] (setting [4]) was determined as 17 µM. As for `O=C(O)c1cccc(OCc2cc3cc(OCc4ccccc4)ccc3n2C(=O)OCc2ccccc2)c1` [Example 3, 3-(2-(1-Phenylmethoxycarbonyl-5-phenylmethoxy)indolyl)methoxybenzoic Acid], the results for the IC50 at cPLA2 [1] and at cPLA2 [2] were 6.5 µM and 14 µM, respectively.

Consider `O=C(O)c1cccc(NC(=O)c2cc3cc(OCc4ccccc4)ccc3n2Cc2ccccc2)c1` [Example 5, 3-(2-(1-Benzyl-5-benzyloxy)indolecarboxamido)benzoic Acid], for which the IC50 is 4.3 µM against cPLA2 [1] and 52 µM against cPLA2 [2]. `CC(C)(c1ccccc1)c1ccc(OCC(=O)N2c3ccc(OCc4ccccc4)cc3CC2CSCC(=O)Nc2cccc(C(=O)O)c2)c(C(C)(C)c2ccccc2)c1` (stereo not drawn) [Example 56]: the IC50 at cPLA2 [1] (setting [3]) turned out to be 0.47 µM; at cPLA2 [2] (setting [4]) it was 5 µM. For “3-(2-(-5-Benzyloxy-1-(2,4-bis(1,1-dimethy)propyl)phenoxyacetyl)indolinyl)methylthioacetamido-4-methylbenzoic Acid [Example 18]”, the 50% inhibitory concentration (IC50) at cPLA2 [1] (setting [3]) was determined as 0.28 µM; at cPLA2 [2] (setting [4]) it was 10 µM. For `CC(O)c1cc(NC(=O)CSCC2Cc3cc(OCc4ccccc4)ccc3N2C(=O)COc2cc(C(F)(F)F)cc(C(F)(F)F)c2)cc(C(=O)O)c1` (stereo not drawn) [Example 42], the 50% inhibitory concentration (IC50) on cPLA2 [1] (setting [3]) was 7.8 µM; at cPLA2 [2] (setting [4]), 14 µM. As for `O=C(O)CSCC1Cc2cc(OCc3ccccc3)ccc2N1C(=O)COc1cc(C(F)(F)F)cc(C(F)(F)F)c1` (stereo not drawn) [Example 37, 2-(5-Benzyloxy-1-(3,5-bis(trifluoromethyl)phenoxyacetyl)indolinyl)methylthioacetic Acid], the IC50 at cPLA2 [1] (setting [3]) is 7.6 µM; on cPLA2 [2] (setting [4]), above 30 µM. As for `O=C(O)c1cc(NC(=O)C2Cc3ccccc3N2Cc2ccc(C(F)(F)F)cc2C(F)(F)F)cc(C(=O)O)c1` (stereo not drawn) [Example 83], the IC50 on cPLA2 [1] (setting [3]) and at cPLA2 [2] (setting [4]) was above 50 µM each time. “5-(2-(-5-Benzyloxy-1-(3,5-bis(trifluoromethyl)phenoxyacetyl)indolinyl)methylthioacetamido)-3-hydroxymethylbenzoic Acid [Example 41]”: the figures for the IC50 on cPLA2 [1] (setting [3]) and on cPLA2 [2] (setting [4]) were 2.2 µM and 22 µM, respectively.

Take `CCC(C)(C)c1ccc(OCC(=O)c2c(CSCC(=O)Nc3cc(C(=O)O)ccc3OC)n(C)c3ccc(OC)cc23)c(C(C)(C)CC)c1` [Example 12, 3-(2-(3-(2,4-bis(1,1-Dimethypropyl)phenoxyacetyl)-5-methoxy-1-methyl)indolyl)methylthioacetamido-4-methoxybenzoic Acid]: the IC50 was found to be 4 µM against cPLA2 [1] and 10 µM on cPLA2 [2]. Regarding `COc1ccc(C(=O)O)cc1NC(=O)CSCC1Cc2cc(OCc3ccccc3)ccc2N1C(=O)COc1ccc(Cc2ccccc2)cc1` (stereo not drawn) [Example 60], the IC50 was 4.6 µM on cPLA2 [1] (setting [3]) and above 30 µM on cPLA2 [2] (setting [4]). Consider `CC(=O)c1cc(NC(=O)CSCC2Cc3cc(OCc4ccccc4)ccc3N2C(=O)COc2cc(C(F)(F)F)cc(C(F)(F)F)c2)cc(C(=O)O)c1` (stereo not drawn) [Example 40], for which the IC50 came out at 6.2 µM on cPLA2 [1] (setting [3]) and 11 µM at cPLA2 [2] (setting [4]). Regarding `O=C(O)c1ccccc1SCC1Cc2cc(OCc3ccccc3)ccc2N1Cc1ccc(Cc2ccccc2)cc1` (stereo not drawn) [Example 78], the IC50 on cPLA2 [2] (setting [4]) came out at 3 µM. Take `CCC(C)(C)c1ccc(CCCCn2c(C(=O)Nc3cc(C(=O)O)ccc3OC)cc3cc(OCc4ccccc4)ccc32)c(C(C)(C)CC)c1` [Example 6]: the IC50 against cPLA2 [1] is 2 µM; at cPLA2 [2], 6 µM. In the case of `O=C(CSCC1Cc2cc(OCc3ccccc3)ccc2N1Cc1ccc2ccccc2c1)Nc1cccc(C(=O)O)c1` (stereo not drawn) [Example 73, 3-(2-(5-Benzyloxy-1-(2-naphthyl)methy)indolinyl)methylthioacetamidobenzoic Acid], the IC50 at cPLA2 [1] (setting [3]) was found to be 1.9 µM; on cPLA2 [2] (setting [4]), 6 µM. With `O=C(O)c1cc(NC(=O)c2cc3cc(OCc4ccccc4)ccc3n2Cc2ccc3ccccc3c2)cc(C(=O)O)c1` [Example 7], the 50% inhibitory concentration (IC50) was found to be 2.1 µM at cPLA2 [1] and 15 µM against cPLA2 [2]. As for “3-(2-(5-Benzyloxy-1-tert-butoxycarbonyl)indolinyl)methylsulfonylacetamidobenzoic Acid [Example 64]”, the IC50 was 17.6 µM at cPLA2 [1] (setting [3]) and above 64 µM at cPLA2 [2] (setting [4]).

Regarding `O=C(CSCC1Cc2cc(OCc3ccccc3)ccc2N1C(=O)COc1ccc(C2C=CCC2)cc1C1C=CCC1)Nc1cccc(C(=O)O)c1` (stereo not drawn) [Example 58], the IC50 on cPLA2 [1] (setting [3]) is 0.56 µM; on cPLA2 [2] (setting [4]), 4 µM. Turning to `O=C(O)c1ccc(CN2c3ccc(OCc4ccccc4)cc3CC2COCc2ccc(C(F)(F)F)cc2C(F)(F)F)cc1` (stereo not drawn) [Example 80, 4-(1-(5-Benzyloxy-2-(bis-2,4-trifluoromethyl)benzyloxymethyl)indolinyl)methylbenzoic Acid], at cPLA2 [2] (setting [4]), the IC50 turned out to be 16 µM. On to “3-(N-(2-(-5-Benzyloxy-1-(2,4-bis(1,1-dimethy)propyl)phenoxyacetyl)indolinyl)methylthioethyl)aminobenzoic Acid [Example 69]”, for which the IC50 is 19.4 µM on cPLA2 [1] (setting [3]) and 6 µM on cPLA2 [2] (setting [4]). In the case of `C=CCN(C(=O)CSCC1Cc2cc(OCc3ccccc3)ccc2N1C(=O)COc1ccc(C(C)(C)CC)cc1C(C)(C)CC)c1cc(C(=O)O)ccc1OC` (stereo not drawn) [Example 71], the IC50 at cPLA2 [1] (setting [3]) amounted to 5.9 µM; at cPLA2 [2] (setting [4]) it was 12 µM. `CNC(=O)c1cc(NC(=O)CSCC2Cc3cc(OCc4ccccc4)ccc3N2C(=O)COc2cc(C(F)(F)F)cc(C(F)(F)F)c2)cc(C(=O)O)c1` (stereo not drawn) [Example 43]: the IC50 is 7.1 µM at cPLA2 [1] (setting [3]) and 21 µM on cPLA2 [2] (setting [4]). With `O=C(NS(=O)(=O)c1ccccc1)C1Cc2ccccc2N1Cc1ccc(C(F)(F)F)cc1C(F)(F)F` (stereo not drawn) [Example 85], the IC50 on cPLA2 [1] (setting [3]) is 21 µM; on cPLA2 [2] (setting [4]), above 50 µM. At cPLA2 [1], `O=C(O)c1ccccc1OCc1cc2cc(OCc3ccccc3)ccc2n1C(=O)OCc1ccccc1` [Example 1, 2-(2-(1-Phenylmethoxycarbonyl-5-phenylmethoxy)indolyl)methoxybenzoic Acid] came in with an IC50 of 47 µM. For the compound `O=C(CSCC1Cc2cc(OCc3ccccc3)ccc2N1Cc1ccc(C(F)(F)F)cc1C(F)(F)F)Nc1cccc(C(=O)O)c1` (stereo not drawn) [Example 74], the IC50 at cPLA2 [1] (setting [3]) turned out to be 1.1 µM; on cPLA2 [2] (setting [4]), 5 µM. Regarding `CCC(C)(C)c1ccc(OCC(=O)N2c3ccc(OCc4ccccc4)cc3CC2CSc2ccccc2C(=O)NC)c(C(C)(C)CC)c1` (stereo not drawn) [Example 68], the IC50 on cPLA2 [1] (setting [3]) and at cPLA2 [2] (setting [4]) was above 50 µM throughout. As to `COc1ccc(C(=O)O)cc1NC(=O)CSCC1Cc2cc(OCc3ccccc3)ccc2N1Cc1ccc(C(F)(F)F)cc1C(F)(F)F` (stereo not drawn) [Example 75], the IC50 came to 7 µM on cPLA2 [1] (setting [3]) and 6.2 µM at cPLA2 [2] (setting [4]). Regarding `CCC(C)(C)c1ccc(OCC(=O)N2c3ccc(OCc4ccccc4)cc3CC2CSCC(=O)O)c(C(C)(C)CC)c1` (stereo not drawn) [Example 66], the results for the IC50 on cPLA2 [1] (setting [3]) and at cPLA2 [2] (setting [4]) were 2.3 µM and 6 µM, respectively. As for `O=C(O)c1ccc(OCc2cc3cc(OCc4ccccc4)ccc3n2C(=O)OCc2ccccc2)cc1` [Example 2, 4-(2-(1-Phenylmethoxycarbonyl-5-phenylmethoxy)indolyl)methoxybenzoic Acid], the IC50 on cPLA2 [1] is 6 µM. For the compound `CS(=O)(=O)NC(=O)C1Cc2ccccc2N1Cc1ccc(C(F)(F)F)cc1C(F)(F)F` (stereo not drawn) [Example 84, N-Methylsulfonyl-2-(1-(2,4-bis(trifluoromethyl)benzyl)indolinyl)carboxamide], the half-maximal inhibitory concentration (IC50) was 23 µM at cPLA2 [1] (setting [3]) and above 50 µM on cPLA2 [2] (setting [4]). Take `CCn1c(CSCC(=O)Nc2cc(C(=O)O)ccc2OC)c(C(=O)COc2ccc(C(C)(C)CC)cc2C(C)(C)CC)c2cc(OCc3ccccc3)ccc21` [Example 13]: the figures for the IC50 against cPLA2 [1] and against cPLA2 [2] were 0.5 µM and 12 µM, respectively. `O=C(CSCC1Cc2cc(OCc3ccccc3)ccc2N1CCc1ccncc1)Nc1cccc(C(=O)O)c1` (stereo not drawn) [Example 72]: the IC50 at cPLA2 [2] (setting [4]) is above 64 µM.
